Results reported in patent publication US9957254B2, “Cyclohexen-1-yl-pyridin-2-yl-1h-pyrazole-4-carboxylic acid derivatives and the use thereof as soluble guanylate cyclase activators” (Novartis AG, priority 2014, dated 2018).

target: T1, soluble guanylate cyclase (Homo sapiens, UniProt Q02153); test: CHO cellular assay (cGMP production, Cisbio cGMP HTRF); assay type: cell-based; conditions: CHO K1 cells overexpressing human GUCYA3/GUCYB3 (clone 8E10), 1 mM IBMX, 20 uM ODQ, 1 h room temperature, listed 0.5 nM means actual EC50 ≤0.5 nM (quantification limit)
T1 construct: expressed in transfected cells
T1 sequence (Q02108 whole entry partner): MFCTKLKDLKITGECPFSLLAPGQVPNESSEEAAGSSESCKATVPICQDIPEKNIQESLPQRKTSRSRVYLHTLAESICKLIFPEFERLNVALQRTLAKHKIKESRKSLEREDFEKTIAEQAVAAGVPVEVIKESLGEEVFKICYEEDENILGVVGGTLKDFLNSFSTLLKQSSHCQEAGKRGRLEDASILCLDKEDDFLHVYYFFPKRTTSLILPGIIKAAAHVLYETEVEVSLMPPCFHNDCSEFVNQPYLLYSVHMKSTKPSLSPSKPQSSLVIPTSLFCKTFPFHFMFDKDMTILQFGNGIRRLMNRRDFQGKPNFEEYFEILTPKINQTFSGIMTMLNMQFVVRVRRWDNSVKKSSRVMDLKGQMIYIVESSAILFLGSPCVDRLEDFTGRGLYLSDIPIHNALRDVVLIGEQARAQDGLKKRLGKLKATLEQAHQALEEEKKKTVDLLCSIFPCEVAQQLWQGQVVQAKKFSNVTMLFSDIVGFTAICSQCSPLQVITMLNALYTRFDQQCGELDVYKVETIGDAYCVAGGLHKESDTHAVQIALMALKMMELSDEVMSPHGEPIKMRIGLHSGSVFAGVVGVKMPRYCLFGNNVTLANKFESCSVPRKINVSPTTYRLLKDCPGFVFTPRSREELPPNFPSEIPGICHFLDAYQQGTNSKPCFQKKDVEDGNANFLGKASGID
T1 sequence (Q02153 whole entry): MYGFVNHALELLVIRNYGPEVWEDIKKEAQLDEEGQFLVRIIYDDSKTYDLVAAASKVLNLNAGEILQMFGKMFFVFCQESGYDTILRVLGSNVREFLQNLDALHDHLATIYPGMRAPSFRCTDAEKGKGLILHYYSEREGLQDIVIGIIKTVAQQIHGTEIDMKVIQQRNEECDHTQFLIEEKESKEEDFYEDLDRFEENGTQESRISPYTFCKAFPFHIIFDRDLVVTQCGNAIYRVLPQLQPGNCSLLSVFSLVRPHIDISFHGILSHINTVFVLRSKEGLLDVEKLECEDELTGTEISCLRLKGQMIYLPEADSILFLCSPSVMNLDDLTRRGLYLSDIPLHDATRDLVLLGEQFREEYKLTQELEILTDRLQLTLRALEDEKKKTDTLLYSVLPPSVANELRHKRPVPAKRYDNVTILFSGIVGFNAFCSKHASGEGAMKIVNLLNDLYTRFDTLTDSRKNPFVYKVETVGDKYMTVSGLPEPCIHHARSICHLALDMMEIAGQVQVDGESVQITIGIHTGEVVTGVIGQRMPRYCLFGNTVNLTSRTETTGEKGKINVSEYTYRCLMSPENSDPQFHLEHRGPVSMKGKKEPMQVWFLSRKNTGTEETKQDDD
Text: Chinese hamster ovary (CHO) cells overexpressing soluble guanylate cyclase were generated to test the effect of sGC activators in a cellular context. Human cDNAs for GUCYA3 (RefSeq: NM_000856.3) and GUCYB3 (RefSeq: NM_000857.1) were amplified by PCR from a HUVEC (Human Umbilical Vein Endothelial Cells) cDNA library and cloned into mammalian expression vectors. CHO K1 cells (ATCC CCL-61) were transfected using Lipofectamine 2000 following manufacturer's instructions and stably expressing clones were identified by antibiotic selection. CHO GUCY clone 8E10 was used for subsequent experiments.
Cells were seeded at a density of 3000 cells/well in white 384-well proxyplates (Perkin Elmer) and incubated overnight, then the medium was removed and cells were washed with assay buffer (HBSS, 0.1% BSA, 1 mM IBMX, 20 uM ODQ). sGC activators were serially diluted in DMSO, then diluted in assay buffer prior to adding to cells (10 ul/well, final DMSO concentration 0.5%). Cells were incubated with compounds for 1 h room temperature, then assayed for cGMP production using Cisbio cGMP HTRF kit (62GM2PEC) according to manufacturer's instructions.
The EC50s are calculated based on the amount of cGMP interpolated from the standard curve, using a 4-parameter sigmoidal dose-response.
Compounds of invention are active on sGC activation. Data on Table 1 collected using the assay of Biological Example 1. The minimum EC50 quantification limit of the assay is 0.5 nM, therefore any compound listed as having an EC50 value of 0.5 nM has a actual EC50 of ≤0.5 nM.

Row | Compound | EC50 [nM]
1 | Cc1cc(C2CCN(C(=O)C3CC3)CC2)ccc1OCC1=C(c2cccc(-n3ncc(C(=O)O)c3C(F)(F)F)n2)CCCC1 [Example 1, 1-(6-(2-((4-(1-(Cyclopropanecarbonyl)piperidin-4-yl)-2-methylphenoxy)methyl)cyclohex-1-en-1-yl)pyridin-2-yl)-5-(trifluoromethyl)-1H-pyrazole-4-carboxylic acid] | ≤ 0.5
2 | CCC(=O)N1CCC(c2ccc(OCC3=C(c4cccc(-n5ncc(C(=O)O)c5C(F)(F)F)n4)CCCC3)c(C)c2)CC1 [Example 2-1, 1-(6-(2-((2-methyl-4-(1-propionylpiperidin-4-yl)phenoxy)methyl)cyclohex-1-en-1-yl)pyridin-2-yl)-5-(trifluoromethyl)-1H-pyrazole-4-carboxylic acid] | ≤ 0.5
3 | COC(=O)N1CCC(c2ccc(OCC3=C(c4cccc(-n5ncc(C(=O)O)c5C(F)(F)F)n4)CCCC3)c(C)c2)CC1 [Example 2-2, 1-(6-(2-((4-(1-(methoxycarbonyl)piperidin-4-yl)-2-methylphenoxy)methyl)cyclohex-1-en-1-yl)pyridin-2-yl)-5-(trifluoromethyl)-1H-pyrazole-4-carboxylic acid] | 1
4 | Cc1cc(C2CCN(S(C)(=O)=O)CC2)ccc1OCC1=C(c2cccc(-n3ncc(C(=O)O)c3C(F)(F)F)n2)CCCC1 [Example 2-3, 1-(6-(2-((2-methyl-4-(1-(methylsulfonyl)piperidin-4-yl)phenoxy)methyl)cyclohex-1-en-1-yl)pyridin-2-yl)-5-(trifluoromethyl)-1H-pyrazole-4-carboxylic acid] | 1
5 | Cc1cc(C2CCN(C(=O)N(C)C)CC2)ccc1OCC1=C(c2cccc(-n3ncc(C(=O)O)c3C(F)(F)F)n2)CCCC1 [Example 2-4, 1-(6-(2-((4-(1-(dimethylcarbamoyl)piperidin-4-yl)-2-methylphenoxy)methyl)cyclohex-1-en-1-yl)pyridin-2-yl)-5-(trifluoromethyl)-1H-pyrazole-4-carboxylic acid] | 1
6 | Cc1cc(C2CCN(C(=O)CO)CC2)ccc1OCC1=C(c2cccc(-n3ncc(C(=O)O)c3C(F)(F)F)n2)CCCC1 [Example 2-5, 1-(6-(2-((4-(1-(2-hydroxyacetyl)piperidin-4-yl)-2-methylphenoxy)methyl)cyclohex-1-en-1-yl)pyridin-2-yl)-5-(trifluoromethyl)-1H-pyrazole-4-carboxylic acid] | 2.4
7 | O=C(O)c1cnn(-c2cccc(C3=C(COc4ccc(C5CCN(C(=O)C6CC6)CC5)cc4)CCCC3)n2)c1C(F)(F)F [Example 2-6, 1-(6-(2-((4-(1-(cyclopropanecarbonyl)piperidin-4-yl)phenoxy)methyl)cyclohex-1-en-1-yl)pyridin-2-yl)-5-(trifluoromethyl)-1H-pyrazole-4-carboxylic acid] | 6.3
8 | CCN(CC)C(=O)N1CCC(c2ccc(OCC3=C(c4cccc(-n5ncc(C(=O)O)c5C(F)(F)F)n4)CCCC3)c(C)c2)CC1 [Example 2-7, 1-(6-(2-((4-(1-(diethylcarbamoyl)piperidin-4-yl)-2-methylphenoxy)methyl)cyclohex-1-en-1-yl)pyridin-2-yl)-5-(trifluoromethyl)-1H-pyrazole-4-carboxylic acid] | 2
9 | CCS(=O)(=O)N1CCC(c2ccc(OCC3=C(c4cccc(-n5ncc(C(=O)O)c5C(F)(F)F)n4)CCCC3)c(C)c2)CC1 [Example 2-8, 1-(6-(2-((4-(1-(ethylsulfonyl)piperidin-4-yl)-2-methylphenoxy)methyl)cyclohex-1-en-1-yl)pyridin-2-yl)-5-(trifluoromethyl)-1H-pyrazole-4-carboxylic acid] | ≤ 0.5
10 | Cc1cc(C2CCN(S(=O)(=O)C3CC3)CC2)ccc1OCC1=C(c2cccc(-n3ncc(C(=O)O)c3C(F)(F)F)n2)CCCC1 [Example 2-9, 1-(6-(2-((4-(1-(cyclopropylsulfonyl)piperidin-4-yl)-2-methylphenoxy)methyl)cyclohex-1-en-1-yl)pyridin-2-yl)-5-(trifluoromethyl)-1H-pyrazole-4-carboxylic acid] | 1
11 | Cc1cc(C2CCN(C(=O)C(C)C)CC2)ccc1OCC1=C(c2cccc(-n3ncc(C(=O)O)c3C(F)(F)F)n2)CCCC1 [Example 2-10, 1-(6-(2-((4-(1-isobutyrylpiperidin-4-yl)-2-methylphenoxy)methyl)cyclohex-1-en-1-yl)pyridin-2-yl)-5-(trifluoromethyl)-1H-pyrazole-4-carboxylic acid] | ≤ 0.5
12 | Cc1cc(C2CCN(C(=O)C3CCC3)CC2)ccc1OCC1=C(c2cccc(-n3ncc(C(=O)O)c3C(F)(F)F)n2)CCCC1 [Example 2-11, 1-(6-(2-((4-(1-(cyclobutanecarbonyl)piperidin-4-yl)-2-methylphenoxy)methyl)cyclohex-1-en-1-yl)pyridin-2-yl)-5-(trifluoromethyl)-1H-pyrazole-4-carboxylic acid] | 1
13 | CCNC(=O)N1CCC(c2ccc(OCC3=C(c4cccc(-n5ncc(C(=O)O)c5C(F)(F)F)n4)CCCC3)c(C)c2)CC1 [Example 2-12, 1-(6-(2-((4-(1-(ethylcarbamoyl)piperidin-4-yl)-2-methylphenoxy)methyl)cyclohex-1-en-1-yl)pyridin-2-yl)-5-(trifluoromethyl)-1H-pyrazole-4-carboxylic acid] | 14
14 | Cc1cc(C2CCN(C(=O)OC(C)(C)C)CC2)ccc1OCC1=C(c2cccc(-n3ncc(C(=O)O)c3C(F)(F)F)n2)CCCC1 [Example 2-13, 1-(6-(2-((4-(1-(tert-butoxycarbonyl)piperidin-4-yl)-2-methylphenoxy)methyl)cyclohex-1-en-1-yl)pyridin-2-yl)-5-(trifluoromethyl)-1H-pyrazole-4-carboxylic acid] | 110
15 | Cc1cc(C2CCN(C(=O)[C@H](C)O)CC2)ccc1OCC1=C(c2cccc(-n3ncc(C(=O)O)c3C(F)(F)F)n2)CCCC1 [Example 3, (S)-1-(6-(2-((4-(1-(2-hydroxypropanoyl)piperidin-4-yl)-2-methylphenoxy)methyl)cyclohex-1-en-1-yl)pyridin-2-yl)-5-(trifluoromethyl)-1H-pyrazole-4-carboxylic acid] | ≤ 0.5
16 | Cc1cc(C2CCN(C(=O)[C@@H](C)O)CC2)ccc1OCC1=C(c2cccc(-n3ncc(C(=O)O)c3C(F)(F)F)n2)CCCC1 [Example 4-1, (R)-1-(6-(2-((4-(1-(2-hydroxypropanoyl)piperidin-4-yl)-2-methylphenoxy)methyl)cyclohex-1-en-1-yl)pyridin-2-yl)-5-(trifluoromethyl)-1H-pyrazole-4-carboxylic acid] | 164
17 | Cc1cc(C2CCN(C(=O)c3ccccn3)CC2)ccc1OCC1=C(c2cccc(-n3ncc(C(=O)O)c3C(F)(F)F)n2)CCCC1 [Example 4-2, 1-(6-(2-((2-methyl-4-(1-picolinoylpiperidin-4-yl)phenoxy)methyl)cyclohex-1-en-1-yl)pyridin-2-yl)-5-(trifluoromethyl)-1H-pyrazole-4-carboxylic acid] | 8.4
18 | Cc1cccc(CN2CCc3cc(OCC4=C(c5cccc(-n6ncc(C(=O)O)c6C(F)(F)F)n5)CCCC4)ccc3C2)n1 [Example 5, 1-(6-(2-(((2-((6-Methylpyridin-2-yl)methyl)-1,2,3,4-tetrahydroisoquinolin-6-yl)oxy)methyl)cyclohex-1-en-1-yl)pyridin-2-yl)-5-(trifluoromethyl)-1H-pyrazole-4-carboxylic acid] | 10
19 | Cc1cc(C2CCN(CC(F)(F)F)CC2)ccc1OCC1=C(c2cccc(-n3ncc(C(=O)O)c3C(F)(F)F)n2)CCCC1 [Example 6-1, 1-(6-(2-((2-methyl-4-(1-(2,2,2-trifluoroethyl)piperidin-4-yl)phenoxy)methyl)cyclohex-1-en-1-yl)pyridin-2-yl)-5-(trifluoromethyl)-1H-pyrazole-4-carboxylic acid] | 2.8
20 | O=C(O)c1cnn(-c2cccc(C3=C(COc4ccc5c(c4)CCN(Cc4ccc6ccccc6n4)C5)CCCC3)n2)c1C(F)(F)F [Example 6-2, 1-(6-(2-(((2-(quinolin-2-ylmethyl)-1,2,3,4-tetrahydroisoquinolin-6-yl)oxy)methyl)cyclohex-1-en-1-yl)pyridin-2-yl)-5-(trifluoromethyl)-1H-pyrazole-4-carboxylic acid] | 16
21 | Cc1cc(C2CCN(CC3CC3)CC2)ccc1OCC1=C(c2cccc(-n3ncc(C(=O)O)c3C(F)(F)F)n2)CCCC1 [Example 6-3, 1-(6-(2-((4-(1-(Cyclopropylmethyl)piperidin-4-yl)-2-methylphenoxy)methyl)cyclohex-1-en-1-yl)pyridin-2-yl)-5-(trifluoromethyl)-1H-pyrazole-4-carboxylic acid] | 374
22 | CCc1cc(OCC2=C(c3cccc(-n4ncc(C(=O)O)c4C(F)(F)F)n3)CCCC2)ccc1C1CCN(C(=O)C2CC2)CC1 [Example 7, 1-(6-(2-((4-(1-(Cyclopropanecarbonyl)piperidin-4-yl)-3-ethylphenoxy)methyl)cyclohex-1-en-1-yl)pyridin-2-yl)-5-(trifluoromethyl)-1H-pyrazole-4-carboxylic acid] | 1
